Data: patent US20250325675A1, “APTAMER, CONJUGATE, COMPOSITION, METHOD FOR PREPARING SAME, AND USE THEREOF” (priority 2022, published 2025)

What was measured:
SVGp12 normal astrocytes = assay: High content imaging: entry of conjugates into SVGp12 normal astrocytes; type: cell-based, human; conditions: 100 nM, 30 min 37°C
Description: (§1) In this experiment, the entry of conjugate AP1 provided by the present disclosure and comparative conjugate comparative AP10 into different cells was observed by a PerkinElmer High Content Imaging system (Operatta).
(§2) U118MG glioma cells, SVGp12 normal astrocytes, T98G human brain glioma cells, U251 human glioma cells, A549 human non-small cell lung cancer cells, MCF-7 human breast cancer cells, and 293T human kidney epithelial cells were all purchased from the Shanghai Cell Bank of Chinese Academy of Sciences. […] The supernatant was aspirated and DPBS buffer (purchased from Thermo Fisher) was added to wash the plate 2 times (100 μL each time).
(§3) Conjugate AP1 prepared above and yeast tRNA were respectively formulated into conjugate solution 2A with DMEM medium, and the conjugate solution 2A comprised yeast tRNA at a final concentration of 100 μg/mL and conjugate AP1 at a final concentration of 100 nM. […]
(§4) Normalization was performed according to the mean fluorescence intensity of control group 2Y, that is, subtracting the mean fluorescence intensity of control group 2Y from the fluorescence intensity of test group 2X before performing imaging.

[1] = system: U118MG glioma tumor spheres; assay: High content imaging: entry into U118MG tumor spheres; type: cell-based, human; conditions: 100 nM, imaging without washing
Description: (§5) In this experiment, the entry of conjugate AP1 provided by the present disclosure and comparative conjugate comparative AP10 into U118MG glioma tumor spheres and A549 human non-small cell lung cancer tumor spheres was observed by a PerkinElmer High Content Imaging system (Operatta).
(§6) 80 μL fresh, sterilized and unsolidified 2% agarose was added into the culture wells of a 96-well plate. […] Half of the supernatant was aspirated every 48 h and fresh DMEM medium was added along the wall of the culture wells. After 7 days of culture, the cells were observed under the microscope to confirm that complete cell spheres were obtained, indicating successful tumor sphere cultivation.
(§7) Each culture well was added with AP1 or comparative AP10 according to the method of experimental Example 2, and imaged in a high content imaging system, with the only difference of directly performing imaging after culture without washing and performing imaging according to the measured fluorescence intensity of Cy5.

[2] = system: A549 human non-small cell lung cancer tumor spheres; assay: High content imaging: entry into A549 tumor spheres; type: cell-based; conditions: 100 nM, imaging without washing
Description: as §5, §6, §7

U118-MG glioma cells = assay: Flow cytometry: entry of conjugates into U118-MG glioma cells in vitro; type: cell-based, human; conditions: 1 h 37°C, yeast tRNA 100 μg/mL, flow cytometry
Description: U118MG cells were seeded into a 96-well plate at 5×10^5 cells/well. Conjugate AP1 prepared above and yeast tRNA were respectively formulated into conjugates solution 1A, 1B, 1C, 1D, 1E, 1F, 1G, 1H, and 1I with DMEM medium, and these conjugate solutions 1A-1I comprised yeast tRNA at a final concentration of 100 μg/mL and respectively comprised conjugate AP1 at final concentrations of 5 nM, 10 nM, 20 nM, 40 nM, 60 nM, 80 nM, 100 nM, 150 nM, 200 nM, and […].
Control conjugate comparative AP10 prepared above and yeast tRNA were respectively formulated into conjugates solution 1A′, 1B′, 1C′, 1D′, 1E′, 1F′, 1G′ 1H′, and 1I′ with DMEM medium, and these conjugate solutions 1A′-1I′ comprised yeast tRNA at a final concentration of 100 μg/mL and respectively comprised control conjugate comparative AP10 at final concentrations of 5 nM, 10 nM, 20 nM, 40 nM, 60 nM, 80 nM, 100 nM, 150 nM, 200 nM, and […].
The aforementioned culture wells containing U118MG cells were respectively added with the conjugate solutions 1A-1I above in an amount of 200 μL/well and designated as test group 1A-test group 1I. The aforementioned culture wells containing U118MG cells were respectively added with the conjugate solution 1A′-1I′ above in an amount of 200 μL/well and designated as control group 1A′-control group 1I′. Another culture well containing U118MG cells was added with 200 μL DMEM medium containing yeast tRNA at a final concentration of 100 μg/mL and designated as blank control group 1J. The 96-well plate containing the above test groups and the blank control group were incubated at 37° C. for 1 h in the dark; after incubation, the supernatant of the reaction mixture of each test group and the blank control group was aspirated, and DPBS buffer (purchased from Thermo Fisher) was added to wash the plate 3 times (100 μL each time). After the washing solution was aspirated, each culture well was added with 100 μL DMEM medium to obtain a cell suspension. The supernatant was removed by centrifugation and then 500 μL DPBS buffer was added to re-suspend the cells. Flow cytometry analysis was performed with flow cytometer (BD Biosciences): 10,000 cells in each test group or the blank control group were analyzed, the fluorescence intensity distribution was determined and the mean fluorescence intensity (MFI, a.u.) was calculated. Furthermore, the mean fluorescence intensity corresponding to each final concentration of conjugates is listed in Table 4 below for comparison, and the relative fluorescence difference R is calculated according to the following equation: R=(MFIAP1−MFICAP10)/MFICAP10.
Therein, MFIAP1 represents mean fluorescence intensity of conjugate AP1 in U118-MG glioma cells, and MFICAP10 represents mean fluorescence intensity of comparative AP10 in U118-MG glioma cells.

[3] = system: A549 human non-small cell lung cancer cells; assay: High content imaging: entry of conjugates into A549 cells; type: cell-based; conditions: 100 nM, 30 min 37°C
Description: as §1, §2, §3, §4

[4] = system: 293T human renal epithelial cells; assay: High content imaging: entry of conjugates into 293T cells; type: cell-based; conditions: 100 nM, 30 min 37°C, normal cells
Description: as §1, §2, §3, §4

U251 human glioma cells = assay: High content imaging: entry of conjugates into U251 cells; type: cell-based; conditions: 100 nM, 30 min 37°C
Description: as §1, §2, §3, §4

[5] = system: MCF-7 human breast cancer cells; assay: High content imaging: entry of conjugates into MCF-7 cells; type: cell-based; conditions: 100 nM, 30 min 37°C
Description: as §1, §2, §3, §4

[6] = system: U118MG subcutaneous tumor; assay: In vivo distribution of conjugates with different modifications in U118MG subcutaneous tumor model mice (Experimental Example 6); parameters: species or system NOD-SCID mice; conditions: 3 mg/kg tail vein; 4 h to 24 h after administration
Description: U118MG subcutaneous tumor model mice were prepared according to the method described in experimental Example 4.
9 mice were divided into 3 groups (3 mice per group). AP2, AP3 and comparative AP12 solutions were respectively administered to each mouse of each group by tail vein injection. […] The three groups of mice were respectively designated as test group 6A, test group 6B and test group 6C. […] On Day 10 after administration, one mouse of blank control group 6Y and one mouse of test group 6A was respectively euthanized and tumor tissues were taken for fluorescence imaging, and the results are shown in FIG. 5H. In FIGS. 5A-5H, Blank represents blank control group 6Y.

hSTAT3 mRNA = hSTAT3 mRNA inhibition by free uptake in PANC-1 cells, qPCR (Experimental Example 18); type: cell-based; conditions: PANC1 human pancreatic cancer cells, free uptake 2 μM, RNA extracted after 7 days
Description: PANC-1 human pancreatic cancer cells in the logarithmic growth phase were selected and digested (0.25% pancreatic enzyme). The cells were collected, centrifuged to remove the supernatant, and then resuspended in DMEM medium containing 10% FBS to be formulated into cell culture solution with a concentration of 1×10^5 cells/mL. The solutions were mixed thoroughly, seeded into a 24-well plate (with 1 mL/well, i.e. 1×10^5 cells/well).
After respectively culturing the cell solutions in different culture wells of a 24-well plate for 24 h, the supernatant was aspirated and 900 μL DMEM medium containing 10% FBS was added into each well. […]
For each reverse transcription reaction system, 5 μL of the above cDNA-containing solution was taken as the template. By using a SYBR Select Master Mix Kit (purchased from Thermo Fisher Scientific, Cat. No. 4472908), the target gene hSTAT3 and the internal control gene hGAPDH were amplified in a SteponePlus™ Real-Time fluorescence quantitative PCR Thermal Cycler (purchased from Thermo Fisher Scientific) according to the operation method the instruction. […]
For each test group and control group, the above quantitative PCR detection was performed twice.
The fluorescence quantitative data was analyzed by relative quantitative 2^−ΔΔct method, and the calculation method was as follows: […]

CY5-CfCfAGAGUfCfGCfUfGAGAUfUfCfGUfGGCfGCfUfAUfAUf (CCAGAGUCGCUGAGAUUCGUGGCGCUAUAU; listed as RNA, chemistry not fully specified) [comparative AP10, reference compound]
Cy5 fluorescence signal in cells (SVGp12 normal astrocytes): did not show any fluorescence signal | Cy5 fluorescence signal in tumor spheres [1]: only the edge of the comparative AP10-treated tumor spheres showed significantly weak fluorescence signal | Cy5 fluorescence signal in tumor spheres [2]: only the edge of the comparative AP10-treated tumor spheres showed significantly weak fluorescence signal | mean fluorescence intensity (MFI) (U118-MG glioma cells; conjugate 5 nM): 25.4 a.u. | mean fluorescence intensity (MFI) (U118-MG glioma cells; conjugate 10 nM): 67.4 a.u. | mean fluorescence intensity (MFI) (U118-MG glioma cells; conjugate 20 nM): 176.4 a.u. | mean fluorescence intensity (MFI) (U118-MG glioma cells; conjugate 40 nM): 443.4 a.u. | mean fluorescence intensity (MFI) (U118-MG glioma cells; conjugate 60 nM): 666.4 a.u. | mean fluorescence intensity (MFI) (U118-MG glioma cells; conjugate 80 nM): 787.4 a.u. | mean fluorescence intensity (MFI) (U118-MG glioma cells; conjugate 100 nM): 1167.4 a.u. | mean fluorescence intensity (MFI) (U118-MG glioma cells; conjugate 150 nM): 1251.4 a.u. | mean fluorescence intensity (MFI) (U118-MG glioma cells; conjugate 200 nM): 1868.4 a.u. | mean fluorescence intensity (MFI) (U118-MG glioma cells; conjugate 500 nM): 4029.4 a.u. | Cy5 fluorescence signal in cells [3]: neither the tumor cells treated with comparative AP10 nor the 293T human renal epithelial cells showed any fluorescence signal | Cy5 fluorescence signal in cells [4]: nor the 293T human renal epithelial cells showed any fluorescence signal | Cy5 fluorescence signal in cells (U251 human glioma cells): neither the tumor cells treated with comparative AP10 nor the 293T human renal epithelial cells showed any fluorescence signal | Cy5 fluorescence signal in cells [5]: neither the tumor cells treated with comparative AP10 nor the 293T human renal epithelial cells showed any fluorescence signal

CY5-CmsUmsGmGmAmGmUmUmCmAmGmAmCmGmUmGmUmUmGmCmUmCmUmUmCmCmGmAmUmCmsUmsCm [AP3]
fluorescence intensity in vivo / tumor [6]: still show high fluorescence intensity

CY5-UmCmUmAmUmGmGmCmUmGmCmCmGmAmUmCmUmGmGmUmCmUmCmCmAmUmGmUmAmCmGmUm [AP12]
fluorescence intensity in vivo / tumor [6]: still show high fluorescence intensity

B1: conjugate 37: siRNA sense strand 3′ terminal linked to AP2 delivery group by Spacer18-GfAfUf; Cy5 on antisense strand; SEQ ID NO: 71/48 (conjugate)
sense: CUAGAAAACUGGAUAACGUGAUCUGGAGUUCAGACGUGUUGCUCUUCCGAUCUC
antisense: ACGUUAUCCAGUUUUCUAGCC
modifications: AP2 delivery group, Spacer18 linker, Cy5; misc_feature 19 is linked to Spacer18 at 3' end
inhibition rate against hSTAT3 mRNA (hSTAT3 mRNA): 33%

B2: conjugate 38: siRNA sense strand 5′ terminal linked to 2′-O-cetyl modified aptamer by four propylene phosphate ester groups; Cy5 on antisense strand; SEQ ID NO: 72/48 (conjugate)
sense: CUGGAGUUCAGACGUGUUGCUCUUCCGAUCUCUUCUAGAAAACUGGAUAACGU
antisense: ACGUUAUCCAGUUUUCUAGCC
modifications: cetyl-modified aptamer, propylene phosphate linkers, Cy5, chemistry not fully specified
inhibition rate against hSTAT3 mRNA (hSTAT3 mRNA): 44%
